According to ChEMBL document CHEMBL1944561, “Discovery and SAR exploration of a novel series of imidazo[4,5-b]pyrazin-2-ones as potent and selective mTOR kinase inhibitors” (Bioorg Med Chem Lett, 2011):

What was measured:
[1] = target: Mitogen-activated protein kinase kinase kinase 9 (Homo sapiens) (UniProt P80192); assay: Inhibition of MLK1 assessed as activity remaining at 10 uM
[2] = target: T1, Aurora kinase A (Homo sapiens) (UniProt O14965); assay: Inhibition of Aurora-A assessed as activity remaining at 10 uM
T1 sequence (whole entry): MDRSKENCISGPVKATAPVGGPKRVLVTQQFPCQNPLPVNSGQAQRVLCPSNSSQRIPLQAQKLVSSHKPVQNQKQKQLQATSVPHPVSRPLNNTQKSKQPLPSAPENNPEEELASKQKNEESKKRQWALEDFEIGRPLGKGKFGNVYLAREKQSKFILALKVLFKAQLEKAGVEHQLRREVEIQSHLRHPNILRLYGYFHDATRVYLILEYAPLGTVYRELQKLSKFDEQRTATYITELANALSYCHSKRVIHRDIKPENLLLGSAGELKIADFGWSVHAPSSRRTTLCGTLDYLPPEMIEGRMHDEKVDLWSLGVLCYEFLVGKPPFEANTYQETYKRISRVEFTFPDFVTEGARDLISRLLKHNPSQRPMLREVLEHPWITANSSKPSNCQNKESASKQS

[3] = target: Epidermal growth factor receptor (Homo sapiens) (UniProt P00533); assay: Inhibition of EGFR assessed as activity remaining at 10 uM
Chain of Epidermal growth factor receptor (Homo sapiens) (P00533 whole entry): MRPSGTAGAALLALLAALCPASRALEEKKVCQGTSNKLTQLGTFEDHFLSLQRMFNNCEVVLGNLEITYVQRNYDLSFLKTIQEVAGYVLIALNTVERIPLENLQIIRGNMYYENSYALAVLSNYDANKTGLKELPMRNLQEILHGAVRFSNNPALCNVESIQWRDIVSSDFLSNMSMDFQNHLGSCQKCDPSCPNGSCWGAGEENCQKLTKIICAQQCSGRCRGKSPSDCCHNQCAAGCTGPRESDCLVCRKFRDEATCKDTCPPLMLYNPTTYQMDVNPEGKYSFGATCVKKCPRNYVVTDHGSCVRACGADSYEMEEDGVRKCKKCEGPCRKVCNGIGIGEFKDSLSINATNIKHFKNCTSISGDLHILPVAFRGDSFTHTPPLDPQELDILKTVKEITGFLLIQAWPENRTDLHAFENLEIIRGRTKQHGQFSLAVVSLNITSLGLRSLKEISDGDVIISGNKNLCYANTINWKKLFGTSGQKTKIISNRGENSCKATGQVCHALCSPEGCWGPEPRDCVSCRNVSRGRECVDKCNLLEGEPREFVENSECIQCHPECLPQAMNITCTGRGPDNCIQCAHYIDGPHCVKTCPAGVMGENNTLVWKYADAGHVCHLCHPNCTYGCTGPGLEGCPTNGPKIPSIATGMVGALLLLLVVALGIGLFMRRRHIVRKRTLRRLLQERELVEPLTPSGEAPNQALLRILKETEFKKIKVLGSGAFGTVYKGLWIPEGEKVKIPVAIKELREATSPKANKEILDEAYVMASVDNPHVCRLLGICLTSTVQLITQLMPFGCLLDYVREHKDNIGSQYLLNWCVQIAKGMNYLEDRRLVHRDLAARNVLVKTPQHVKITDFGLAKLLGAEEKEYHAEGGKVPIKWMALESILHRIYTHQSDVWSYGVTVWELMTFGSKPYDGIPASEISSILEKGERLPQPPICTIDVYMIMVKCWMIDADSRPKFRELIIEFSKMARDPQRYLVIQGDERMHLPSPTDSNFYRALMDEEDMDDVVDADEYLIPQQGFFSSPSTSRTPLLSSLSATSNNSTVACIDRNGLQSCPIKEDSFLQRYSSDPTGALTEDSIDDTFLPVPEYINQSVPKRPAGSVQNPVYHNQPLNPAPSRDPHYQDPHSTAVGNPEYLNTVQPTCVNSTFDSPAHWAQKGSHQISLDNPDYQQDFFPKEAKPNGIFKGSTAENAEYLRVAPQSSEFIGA

[4] = target: Homeodomain-interacting protein kinase 1 (Homo sapiens) (UniProt Q86Z02); assay: Inhibition of HIPK1 assessed as activity remaining at 10 uM
Chain of Homeodomain-interacting protein kinase 1 (Homo sapiens) (Q86Z02 whole entry, looked up): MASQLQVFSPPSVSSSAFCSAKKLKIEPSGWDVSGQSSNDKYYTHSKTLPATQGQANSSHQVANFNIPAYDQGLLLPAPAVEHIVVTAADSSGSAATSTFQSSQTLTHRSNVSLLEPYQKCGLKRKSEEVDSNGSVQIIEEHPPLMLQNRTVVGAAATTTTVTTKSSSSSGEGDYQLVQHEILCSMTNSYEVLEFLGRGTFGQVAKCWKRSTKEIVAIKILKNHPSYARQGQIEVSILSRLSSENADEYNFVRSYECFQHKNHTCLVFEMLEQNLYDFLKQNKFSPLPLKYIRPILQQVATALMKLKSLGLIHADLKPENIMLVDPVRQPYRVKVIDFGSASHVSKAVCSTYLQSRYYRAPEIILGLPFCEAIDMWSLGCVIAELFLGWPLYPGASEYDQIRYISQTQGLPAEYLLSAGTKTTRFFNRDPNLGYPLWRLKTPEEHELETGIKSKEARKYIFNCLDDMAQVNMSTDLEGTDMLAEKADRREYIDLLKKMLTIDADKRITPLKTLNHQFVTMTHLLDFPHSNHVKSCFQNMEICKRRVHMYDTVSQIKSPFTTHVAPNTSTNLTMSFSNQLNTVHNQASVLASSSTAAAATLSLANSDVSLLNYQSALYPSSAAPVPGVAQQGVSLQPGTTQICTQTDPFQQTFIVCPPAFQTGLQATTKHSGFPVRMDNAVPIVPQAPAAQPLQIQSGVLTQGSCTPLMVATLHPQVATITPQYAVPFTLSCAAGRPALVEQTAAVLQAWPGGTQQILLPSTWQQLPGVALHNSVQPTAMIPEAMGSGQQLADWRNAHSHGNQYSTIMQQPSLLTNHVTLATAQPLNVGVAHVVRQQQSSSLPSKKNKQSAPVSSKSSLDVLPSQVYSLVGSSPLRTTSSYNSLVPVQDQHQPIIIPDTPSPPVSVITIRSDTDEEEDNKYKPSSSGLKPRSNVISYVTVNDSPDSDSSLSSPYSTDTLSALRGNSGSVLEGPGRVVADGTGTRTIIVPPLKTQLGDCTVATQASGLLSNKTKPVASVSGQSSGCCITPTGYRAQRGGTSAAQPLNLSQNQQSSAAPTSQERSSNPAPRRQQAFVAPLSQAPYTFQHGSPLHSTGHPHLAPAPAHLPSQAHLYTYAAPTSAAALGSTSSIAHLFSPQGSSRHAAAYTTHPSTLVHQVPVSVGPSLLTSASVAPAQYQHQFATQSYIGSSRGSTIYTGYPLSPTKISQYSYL

[5] = Inhibition of CK2 assessed as activity remaining at 10 uM
[6] = target: SRSF protein kinase 3 (Homo sapiens) (UniProt Q9UPE1); assay: Inhibition of MSSK1 assessed as activity remaining at 10 uM
Chain of SRSF protein kinase 3 (Homo sapiens) (Q9UPE1 whole entry): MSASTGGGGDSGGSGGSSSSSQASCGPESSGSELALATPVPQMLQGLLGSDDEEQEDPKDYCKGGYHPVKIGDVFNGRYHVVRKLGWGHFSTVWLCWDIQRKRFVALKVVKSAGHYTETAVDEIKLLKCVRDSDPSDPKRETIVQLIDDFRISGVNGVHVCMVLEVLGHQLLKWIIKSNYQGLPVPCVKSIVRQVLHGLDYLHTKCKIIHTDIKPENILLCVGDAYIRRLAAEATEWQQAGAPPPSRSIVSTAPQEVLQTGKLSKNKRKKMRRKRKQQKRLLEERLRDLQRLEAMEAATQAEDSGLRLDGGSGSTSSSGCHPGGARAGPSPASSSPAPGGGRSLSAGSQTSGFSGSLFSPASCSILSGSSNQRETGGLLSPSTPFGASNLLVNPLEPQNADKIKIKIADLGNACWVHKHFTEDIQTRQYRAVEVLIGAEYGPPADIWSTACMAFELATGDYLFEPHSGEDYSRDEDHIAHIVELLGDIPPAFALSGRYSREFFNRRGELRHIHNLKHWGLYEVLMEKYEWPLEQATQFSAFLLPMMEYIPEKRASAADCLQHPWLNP

[7] = target: High affinity nerve growth factor receptor (Homo sapiens) (UniProt P04629); assay: Inhibition of TrkA assessed as activity remaining at 10 uM
Chain of High affinity nerve growth factor receptor (Homo sapiens) (P04629 33-796 limits assumed): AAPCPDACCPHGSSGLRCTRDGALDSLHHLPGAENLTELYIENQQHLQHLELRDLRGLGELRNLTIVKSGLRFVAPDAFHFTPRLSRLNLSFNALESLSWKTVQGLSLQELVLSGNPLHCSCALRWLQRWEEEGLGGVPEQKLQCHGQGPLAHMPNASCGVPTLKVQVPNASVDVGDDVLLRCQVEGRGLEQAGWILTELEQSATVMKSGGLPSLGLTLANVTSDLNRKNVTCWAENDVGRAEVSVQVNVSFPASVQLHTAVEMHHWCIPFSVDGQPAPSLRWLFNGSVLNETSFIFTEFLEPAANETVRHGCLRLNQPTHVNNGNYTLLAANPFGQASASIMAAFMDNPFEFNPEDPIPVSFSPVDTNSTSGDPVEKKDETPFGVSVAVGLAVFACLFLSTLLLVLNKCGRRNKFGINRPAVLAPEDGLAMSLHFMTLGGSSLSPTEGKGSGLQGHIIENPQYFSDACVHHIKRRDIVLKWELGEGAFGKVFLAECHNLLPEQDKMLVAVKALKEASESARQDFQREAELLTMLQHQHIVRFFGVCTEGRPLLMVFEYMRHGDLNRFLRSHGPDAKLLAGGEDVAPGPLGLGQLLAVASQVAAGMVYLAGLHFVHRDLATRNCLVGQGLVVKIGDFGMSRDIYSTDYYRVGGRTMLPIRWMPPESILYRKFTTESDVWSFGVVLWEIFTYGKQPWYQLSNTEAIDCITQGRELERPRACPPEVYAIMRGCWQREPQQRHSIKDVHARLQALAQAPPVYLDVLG

[8] = target: T2, Serine/threonine-protein kinase Nek2 (Homo sapiens) (UniProt P51955); assay: Inhibition of NEK2 assessed as activity remaining at 10 uM
T2 sequence (whole entry): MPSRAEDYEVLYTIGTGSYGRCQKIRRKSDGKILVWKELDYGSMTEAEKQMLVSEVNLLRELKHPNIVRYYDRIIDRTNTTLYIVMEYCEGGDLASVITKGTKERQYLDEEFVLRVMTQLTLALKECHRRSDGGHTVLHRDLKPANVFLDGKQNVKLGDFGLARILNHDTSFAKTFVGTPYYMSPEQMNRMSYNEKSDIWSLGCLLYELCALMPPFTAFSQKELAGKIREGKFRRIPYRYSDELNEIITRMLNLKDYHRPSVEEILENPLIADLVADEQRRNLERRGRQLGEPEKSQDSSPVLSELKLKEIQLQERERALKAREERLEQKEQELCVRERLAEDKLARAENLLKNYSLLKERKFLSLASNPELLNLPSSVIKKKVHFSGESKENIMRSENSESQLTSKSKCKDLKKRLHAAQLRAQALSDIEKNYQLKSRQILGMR

[9] = target: Protein-tyrosine kinase 6 (Homo sapiens) (UniProt Q13882); assay: Inhibition of BRK assessed as activity remaining at 10 uM
[10] = target: Protein kinase C theta type (Homo sapiens) (UniProt Q04759); assay: Inhibition of PKC-theta assessed as activity remaining at 10 uM
Chain of Protein kinase C theta type (Homo sapiens) (Q04759 whole entry, looked up): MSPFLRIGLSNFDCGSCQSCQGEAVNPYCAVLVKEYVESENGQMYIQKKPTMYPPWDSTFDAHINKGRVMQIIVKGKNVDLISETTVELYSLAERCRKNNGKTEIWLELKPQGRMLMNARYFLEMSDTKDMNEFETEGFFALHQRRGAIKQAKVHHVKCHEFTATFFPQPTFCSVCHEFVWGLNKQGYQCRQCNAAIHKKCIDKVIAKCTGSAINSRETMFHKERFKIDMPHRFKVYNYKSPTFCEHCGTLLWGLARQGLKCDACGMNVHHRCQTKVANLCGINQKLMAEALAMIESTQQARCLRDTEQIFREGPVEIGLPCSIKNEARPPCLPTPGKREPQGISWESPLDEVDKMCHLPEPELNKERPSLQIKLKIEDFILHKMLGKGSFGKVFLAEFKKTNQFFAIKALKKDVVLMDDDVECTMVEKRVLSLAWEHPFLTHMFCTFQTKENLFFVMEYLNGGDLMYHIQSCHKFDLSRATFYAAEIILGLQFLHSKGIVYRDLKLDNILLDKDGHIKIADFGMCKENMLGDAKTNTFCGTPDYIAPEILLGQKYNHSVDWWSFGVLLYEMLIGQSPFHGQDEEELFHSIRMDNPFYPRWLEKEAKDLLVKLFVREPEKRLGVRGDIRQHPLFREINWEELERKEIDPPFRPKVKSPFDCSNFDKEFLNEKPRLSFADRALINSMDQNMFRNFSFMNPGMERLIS

[11] = target: Serine/threonine-protein kinase mTOR (Homo sapiens, UniProt P42345); assay: Inhibition of mTOR
[12] = target: T3, Cytoplasmic tyrosine-protein kinase BMX (Homo sapiens) (UniProt P51813); assay: Inhibition of Bmx assessed as activity remaining at 10 uM
T3 sequence (whole entry): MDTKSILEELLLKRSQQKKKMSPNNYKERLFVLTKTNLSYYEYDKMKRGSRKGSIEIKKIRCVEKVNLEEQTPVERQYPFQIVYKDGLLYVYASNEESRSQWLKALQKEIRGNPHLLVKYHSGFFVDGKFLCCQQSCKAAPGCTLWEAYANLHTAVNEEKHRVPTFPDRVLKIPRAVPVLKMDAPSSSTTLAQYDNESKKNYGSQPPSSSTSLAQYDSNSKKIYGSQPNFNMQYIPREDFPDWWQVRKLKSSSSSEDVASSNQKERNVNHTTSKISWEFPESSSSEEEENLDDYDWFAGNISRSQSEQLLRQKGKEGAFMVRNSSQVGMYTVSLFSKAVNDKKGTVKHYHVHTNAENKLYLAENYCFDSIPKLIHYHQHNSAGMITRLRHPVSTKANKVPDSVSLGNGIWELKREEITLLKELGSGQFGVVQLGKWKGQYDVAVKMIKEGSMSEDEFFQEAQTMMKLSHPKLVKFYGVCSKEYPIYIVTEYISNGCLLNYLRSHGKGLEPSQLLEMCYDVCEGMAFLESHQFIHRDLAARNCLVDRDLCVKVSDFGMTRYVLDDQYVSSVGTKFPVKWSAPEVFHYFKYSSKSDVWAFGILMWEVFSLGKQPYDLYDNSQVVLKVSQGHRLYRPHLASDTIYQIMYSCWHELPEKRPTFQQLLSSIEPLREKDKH

[13] = target: T4, Serine/threonine-protein kinase Chk1 (Homo sapiens) (UniProt O14757); assay: Inhibition of CHK1 assessed as activity remaining at 10 uM
T4 sequence (whole entry): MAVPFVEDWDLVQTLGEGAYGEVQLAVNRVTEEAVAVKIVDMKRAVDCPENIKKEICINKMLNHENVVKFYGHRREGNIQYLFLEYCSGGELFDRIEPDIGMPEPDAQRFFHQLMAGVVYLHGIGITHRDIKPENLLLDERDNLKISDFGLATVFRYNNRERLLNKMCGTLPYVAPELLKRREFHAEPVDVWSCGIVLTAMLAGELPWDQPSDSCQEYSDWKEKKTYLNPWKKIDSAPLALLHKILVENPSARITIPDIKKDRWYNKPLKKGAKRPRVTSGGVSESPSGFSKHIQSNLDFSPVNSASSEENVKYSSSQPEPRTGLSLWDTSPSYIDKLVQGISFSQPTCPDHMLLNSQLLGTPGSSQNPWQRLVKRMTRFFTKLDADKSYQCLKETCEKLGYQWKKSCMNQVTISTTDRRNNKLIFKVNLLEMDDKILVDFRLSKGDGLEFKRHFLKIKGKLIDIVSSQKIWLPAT

[14] = target: Cyclin-dependent kinase 2 (Homo sapiens) (UniProt P24941); assay: Inhibition of CDK2 assessed as activity remaining at 10 uM
[15] = target: Serine/threonine-protein kinase PAK 4 (Homo sapiens) (UniProt O96013); assay: Inhibition of PAK4 assessed as activity remaining at 10 uM
Chain of Serine/threonine-protein kinase PAK 4 (Homo sapiens) (O96013 whole entry, looked up): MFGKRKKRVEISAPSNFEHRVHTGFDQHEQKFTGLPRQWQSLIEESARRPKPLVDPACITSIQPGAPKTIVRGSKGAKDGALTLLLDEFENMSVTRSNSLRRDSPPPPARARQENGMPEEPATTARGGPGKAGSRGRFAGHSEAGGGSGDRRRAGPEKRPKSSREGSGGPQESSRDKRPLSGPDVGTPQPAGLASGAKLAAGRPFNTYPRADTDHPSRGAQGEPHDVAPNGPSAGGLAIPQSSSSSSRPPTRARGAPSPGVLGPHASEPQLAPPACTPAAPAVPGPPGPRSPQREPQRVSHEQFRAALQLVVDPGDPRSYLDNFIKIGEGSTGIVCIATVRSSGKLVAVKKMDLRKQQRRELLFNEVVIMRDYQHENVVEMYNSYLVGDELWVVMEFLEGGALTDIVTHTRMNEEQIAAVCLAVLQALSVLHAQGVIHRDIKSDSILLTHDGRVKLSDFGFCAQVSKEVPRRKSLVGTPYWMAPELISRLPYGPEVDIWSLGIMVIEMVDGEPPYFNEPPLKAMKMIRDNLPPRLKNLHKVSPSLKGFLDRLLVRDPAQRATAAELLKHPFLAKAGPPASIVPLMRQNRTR

[16] = target: Angiopoietin-1 receptor (Homo sapiens) (UniProt Q02763); assay: Inhibition of Tie2 assessed as activity remaining at 10 uM

| SMILES | Activity [1] [%] | Activity [2] [%] | Activity [3] [%] | Activity [4] [%] | Activity [5] [%] | Activity [6] [%] | Activity [7] [%] | Activity [8] [%] | Activity [9] [%] | Activity [10] [%] | IC50 [11] [nM] | Activity [12] [%] | Activity [13] [%] | Activity [14] [%] | Activity [15] [%] | Activity [16] [%] |
| --- | --- | --- | --- | --- | --- | --- | --- | --- | --- | --- | --- | --- | --- | --- | --- | --- |
| O=c1[nH]c2ncc(-c3ccc(-c4nc[nH]n4)cc3)nc2n1CC1CCOCC1 | 86 | 79 | 88 | 91 | 99 | 93 | 77 | 103 | 93 | 82 | 2 | 93 | 97 | 90 | 87 | 86 |
| O=c1[nH]c2ncc(-c3ccc4[nH]cnc4c3)nc2n1CC1CCCCC1 | 49 | 32 | 87 | 84 | 73 | 91 | 61 | 98 | 82 | 73 | 21 | 92 | 88 | 81 | 81 | 83 |
| CC(C)(O)c1ccc(-c2cnc3[nH]c(=O)n(CC4CCCCC4)c3n2)cc1 | 80 | 58 | 98 | 94 | 95 | 89 | 86 | 98 | 92 | 80 | 30 | 85 | 93 | 81 | 87 | 85 |
